From US7148249B2, “Indolinones substituted by heterocycles, the preparation thereof and their use as medicaments” (Boehringer Ingelheim Pharma GmbH & Co. KG, priority 2002, dated 2006)

System: Human umbilical endothelial cells (HUVEC)
Experiment: Inhibition of VEGF165-stimulated HUVEC proliferation (3H-thymidine incorporation)
Type: cell-based
Conditions: HUVEC proliferation stimulated with 5 ng/ml VEGF165 and 10 μg/ml heparin, 76 h incubation + 16 h 3H-thymidine
Description: Human umbilical endothelial cells (HUVEC) were cultivated in IMDM (Gibco BRL), supplemented with 10% foetal calf serum (FBS) (Sigma), 50 μM of β-mercaptoethanol (Fluka), standard antibiotics, 15 μg/ml of endothelial cell growth factor (ECGS, Collaborative Biomedical Products) and 100 μg/ml of heparin (Sigma) on gelatine-coated culture dishes (0.2% gelatine, Sigma) at 37° C., under 5% CO2 in a water-saturated atmosphere.
In order to investigate the inhibitory activity of the compounds according to the invention the cells were “starved” for 16 hours, i.e. kept in culture medium without growth factors (ECGS+heparin). The cells were detached from the culture dishes using trypsin/EDTA and washed once in serum-containing medium. Then they were seeded out in amounts of 2.5×10^3 cells per well.
The proliferation of the cells was stimulated with 5 ng/ml of VEGF165 (vascular endothelial growth factor; H. Weich, GBF Braunschweig) and 10 μg/ml of heparin. As a control, 6 wells in each dish were not stimulated.
The compounds according to the invention were dissolved in 100% dimethylsulphoxide and added to the cultures in various dilutions as triple measurements, the maximum dimethylsulphoxide concentration being 0.3%.
The cells were incubated for 76 hours at 37° C., then for a further 16 hours ^3H-thymidine (0.1 μCi/well, Amersham) was added in order to determine the DNA synthesis. Then the radioactively labelled cells were immobilised on filter mats and the radioactivity incorporated was measured in a β-counter. In order to determine the inhibitory activity of the compounds according to the invention the mean value of the non-stimulated cells was subtracted from the mean value of the factor-stimulated cells (in the presence or absence of the compounds according to the invention).
The relative cell proliferation was calculated as a percentage of the control (HUVEC without inhibitor) and the concentration of active substance which inhibits the proliferation of the cells by 50% (IC50) was determined.

| Compound | IC50 (Homo sapiens) | IC50 |
| --- | --- | --- |
| CN1CCN(Cc2ccc(N/C(=C3\C(=O)Nc4cc(C(=O)N(C)C)ccc43)c3ccc4c(c3)OCCO4)cc2)CC1 [(ah), 3-(Z)-{1-(4-[1-methyl-piperazin-4-yl-methyl]-phenylamino)-1-(3,4-ethylenedioxy-phenyl)-methylene}-6-dimethylaminocarbonyl-2-indolinone] | 100 nM |  |
| CCN(CC)Cc1ccc(N/C(=C2\C(=O)Nc3cc(C(=O)OC)ccc32)c2ccc3c(c2)OCO3)cc1 [(x), 3-(Z)-{1-(4-[diethylamino-methyl]-phenylamino)-1-(3,4-methylenedioxyphenyl)-methylene}-6-methoxycarbonyl-2-indolinone] | 1 nM |  |
| CN(C)CCN(c1ccc(N/C(=C2\C(=O)Nc3cc(F)ccc32)c2ccc3c(c2)OCCO3)cc1Cl)S(C)(=O)=O [(bd), 6-fluoro-3-(Z)-[1-(4-{N-(2-dimethylamino-ethyl)-N-methanesulphonyl-amino}-3-chloro-phenylamino)-1-(1,2-ethylenedioxyphen-4-yl)-methylene]-2-indolinone] |  | 5 nM |
| CN(C)C(=O)c1ccc(N/C(=C2\C(=O)Nc3cc(F)ccc32)c2ccc3c(c2)ncn3C)cc1 [(y), 3-(Z)-{1-[4-(dimethylaminocarbonyl)-phenylamino]-1-(1-methyl-benzimidazol-5-yl)-methylene}-6-fluoro-2-indolinone] | 14 nM |  |
| CN1CCC(N(C)C(=O)c2ccc(N/C(=C3\C(=O)Nc4cc(F)ccc43)c3ccc4c(c3)OCCO4)cc2)CC1 [(am), 3-(Z)-{1-(4-[N-methyl-N-(1-methyl-4-piperidinyl)-aminocarbonyl]-phenylamino)-1-(3,4-ethylenedioxyphenyl)-methylene}-6-fluoro-2-indolinone] | 5 nM |  |
| CN(C)CCN(c1ccc(N/C(=C2\C(=O)Nc3cc(F)ccc32)c2ccc3c(c2)OCCO3)cc1)S(C)(=O)=O [(ab), 3-(Z)-{1-(4-[N-methanesulphonyl-N-(2-dimethylaminoethyl)-amino]-phenylamino)-1-(3,4-ethylenedioxyphenyl)-methylene}-6-fluoro-2-indolinone] | 1 nM |  |
| COc1cc(N/C(=C2\C(=O)Nc3cc(Cl)ccc32)c2ccc3c(c2)OCCO3)ccc1N(C)C(=O)CN(C)C [(bb), 6-chloro-3-(Z)-{1-[4-(N-dimethylaminomethylcarbonyl-N-methyl-amino)-3-methoxy-phenylamino]-1-(1,2-ethylenedioxyphen-4-yl)-methylene}-2-indolinone] |  | 33 nM |
| COC(=O)c1ccc2c(c1)NC(=O)/C2=C(\Nc1ccc(N(CCN(C)C)C(C)=O)cc1)c1ccc2c(c1)OCCO2 [(ac), 3-(Z)-{1-(4-[N-acetyl-N-(2-dimethylaminoethyl)-amino]-phenylamino)-1-(3,4-ethylenedioxyphenyl)-methylene}-6-methoxycarbonyl-2-indolinone] | 0.2 nM |  |
| CN(C)CC(=O)N(C)c1ccc(N/C(=C2\C(=O)Nc3ccccc32)c2ccoc2)cc1 [(an), 3-(Z)-{1-(4-[N-methyl-N-(dimethylaminomethylcarbonyl)-amino]-phenylamino)-1-(3-furyl)-methylene}-2-indolinone] | 58 nM |  |
| 3-(Z)-{1-(4-[N-acetyl-N-(2-dimethylaminoethyl)-amino]-phenylamino)-1-(3,4-(difluoromethylenedioxy)phenyl)-methylene}-6-chloro-2-indolinone [(al)] |  | 83 nM |
| COC(=O)c1ccc2c(c1)NC(=O)/C2=C(\Nc1ccc(CN2CCCC2)cc1)c1ccc2c(c1)OCCO2 [(s), 3-(Z)-{1-(4-[pyrrolidin-1-yl-methyl]-phenylamino)-1-(3,4-ethylenedioxyphenyl)-methylene}-6-methoxycarbonyl-2-indolinone] | 0.6 nM |  |
| CN1CCN(CC(=O)N(C)c2ccc(N/C(=C3\C(=O)Nc4cc(Cl)ccc43)c3ccc4c(c3)OCO4)cc2)CC1 [(az), 3-(Z)-{1-(4-[N-methyl-N-(4-methylpiperazin-1-yl-methylcarbonyl)-amino]-phenyl-amino)-1-(3,4-methylenedioxyphenyl)-methylene}-6-chloro-2-indolinone] | 6 nM |  |
| CCN(CC)CCS(=O)(=O)c1ccc(N/C(=C2\C(=O)Nc3cc(Cl)ccc32)c2ccc3c(c2)OCO3)cc1 [(ap), 3-(Z)-{1-(4-[2-(diethylamino)ethyl-sulphonyl]-phenylamino)-1-(3,4-methylenedioxyphenyl)-methylene}-6-chloro-2-indolinone] | 120 nM |  |
| CN(C)Cc1ccc(N/C(=C2\C(=O)Nc3ccccc32)c2ccc3c(c2)ncn3C)cc1 [(aq), 3-(Z)-{1-[4-(dimethylaminomethyl)-phenylamino]-1-(1-methyl-benzimidazol-5-yl)-methylene}-2-indolinone] | 24 nM |  |
| COC(=O)c1ccc2c(c1)NC(=O)/C2=C(\Nc1ccc(CN(C)C)cc1)c1ccc2c(c1)OCCO2 [(i), 3-(Z)-{1-[4-(dimethylaminomethyl)-phenylamino]-1-(3,4-ethylenedioxyphenyl)-methylene}-6-methoxycarbonyl-2-indolinone] | 0.5 nM |  |
| CCC(=O)N(CCN(C)C)c1ccc(N/C(=C2\C(=O)Nc3cc(Cl)ccc32)c2ccc3c(c2)OCCO3)cc1 [(o), 3-(Z)-{1-(4-[N-propionyl-N-(2-dimethylaminoethyl)-amino]-phenylamino)-1-(3,4-ethylenedioxyphenyl)-methylene}-6-chloro-2-indolinone] | 1 nM |  |
| CCC(=O)N(CCCN(C)C)c1ccc(N/C(=C2\C(=O)Nc3cc(Cl)ccc32)c2ccc3c(c2)OCCO3)cc1 [(n), 3-(Z)-{1-(4-[N-propionyl-N-(3-dimethylaminopropyl)-amino]-phenylamino)-1-(3,4-ethylenedioxyphenyl)-methylene}-6-chloro-2-indolinone] | 1 nM |  |
| CC(=O)N(CCCN(C)C)c1ccc(N/C(=C2\C(=O)Nc3cc(Cl)ccc32)c2ccc3c(c2)OCCO3)cc1 [(m), 3-(Z)-{1-(4-[N-acetyl-N-(3-dimethylaminopropyl)-amino]-phenylamino)-1-(3,4-ethylenedioxyphenyl)-methylene}-6-chloro-2-indolinone] | 0.3 nM |  |
| CC(=O)N(CCN(C)C)c1ccc(N/C(=C2\C(=O)Nc3cc(F)ccc32)c2ccc3c(c2)OCCO3)cc1 [(k), 3-(Z)-{1-(4-[N-acetyl-N-(2-dimethylaminoethyl)-amino]-phenylamino)-1-(3,4-ethylenedioxyphenyl)-methylene}-6-fluoro-2-indolinone] | 0.7 nM |  |
| Cn1ccnc1-c1ccc(N/C(=C2\C(=O)Nc3cc(Cl)ccc32)c2ccc3nccnc3c2)cc1 [(ar), 3-(Z)-{1-(4-[1-methylimidazol-2-yl]-phenylamino)-1-(quinoxalin-6-yl)-methylene}-6-chloro-2-indolinone] | 71 nM |  |
| CN(C)Cc1ccc(N/C(=C2\C(=O)Nc3cc(Cl)ccc32)c2ccc3c(c2)OCO3)cc1 [(a), 3-(Z)-{1-[4-(dimethylaminomethyl)-phenylamino]-1-(3,4-methylenedioxyphenyl)-methylene}-6-chloro-2-indolinone] | 11 nM |  |
| COC(=O)c1ccc2c(c1)NC(=O)/C2=C(\Nc1ccc(C(=O)N(C)CCN(C)C)cc1)c1ccc2c(c1)OCCO2 [(ad), 3-(Z)-{1-(4-[N-methyl-N-(2-dimethylaminoethyl)aminocarbonyl]-phenylamino)-1-(3,4-ethylenedioxyphenyl)-methylene}-6-methoxycarbonyl-2-indolinone] | 0.4 nM |  |
| COC(=O)c1ccc2c(c1)NC(=O)/C2=C(\Nc1ccc(C(=O)N(C)CCN(C)C)cc1)c1ccc2c(c1)OCO2 [(af), 3-(Z)-{1-(4-[N-methyl-N-(2-dimethylaminoethyl)aminocarbonyl]-phenylamino)-1-(3,4-methylenedioxyphenyl)-methylene}-6-methoxycarbonyl-2-indolinone] | 0.5 nM |  |
| Cc1cc(C)n(-c2ccc(N/C(=C3\C(=O)Nc4cc(F)ccc43)c3ccc4c(c3)ncn4C)cc2)n1 [(at), 3-(Z)-{1-[4-(3,5-dimethyl-pyrazol-1-yl)-phenylamino]-1-(1-methyl-benzimidazol-5-yl)-methylene}-6-fluoro-2-indolinone] | 30 nM |  |
| CN(C)Cc1ccc(N/C(=C2\C(=O)Nc3ccccc32)c2ccc3c(c2)nnn3C)cc1 [(av), 3-(Z)-{1-[4-(dimethylaminomethyl)-phenylamino]-1-(1-methyl-benzotriazol-5-yl)-methylene}-2-indolinone] | 94 nM |  |
| CCC(=O)N(CCN(C)C)c1ccc(N/C(=C2\C(=O)Nc3cc(F)ccc32)c2ccc3c(c2)OCCO3)cc1 [(aa), 3-(Z)-{1-(4-[N-propionyl-N-(2-dimethylaminoethyl)-amino]-phenylamino)-1-(3,4-ethylenedioxyphenyl)-methylene}-6-fluoro-2-indolinone] | 0.6 nM |  |
| CN1CCN(C(=O)Cc2ccc(N/C(=C3\C(=O)Nc4cc(F)ccc43)c3ccc4c(c3)OCCO4)cc2)CC1 [(aw), 3-(Z)-{1-(4-[(1-methyl-piperazin-4-yl)-carbonylmethyl]-phenylamino)-1-(3,4-ethylenedioxyphenyl)-methylene}-6-fluoro-2-indolinone] | 4 nM |  |
